Experimental data: ChEMBL document CHEMBL1149262, “Monoamine transporter binding, locomotor activity, and drug discrimination properties of 3-(4-substituted-phenyl)tropane-2-carboxylic acid methyl ester isomers” (J Med Chem, 2004)
Calls of active or inactive are those of the source. The calls are words filed in the database; no cut-off is given here.

Tests used:
Rattus norvegicus [1] = experiment: Drug discrimination effect in CD Albino rat assessed as percent of rat choosing cocaine lever at 0.56 mg/kg, ip; assay type: functional; details: route intraperitoneal
Mus musculus [2] = experiment: Locomotor activity in CD1 mouse assessed as stimulation at 3 mg/kg, ip after 1 hr relative to control; assay type: functional; details: route intraperitoneal
Mus musculus [3] = experiment: Locomotor activity in CD1 mouse assessed as stimulation at 3 mg/kg, ip after 2 hrs relative to control; assay type: functional; details: route intraperitoneal
Mus musculus [4] = experiment: Activity in CD1 mouse assessed as stereotypy at 10 mg/kg, ip after 4 hrs; assay type: functional, organism-based; design: dose 10 mg/kg
[5] = target: Sodium-dependent serotonin transporter (Homo sapiens, UniProt P31645)
Description: Displacement of [3H]paroxetine from 5HTT

Mus musculus [6] = experiment: Activity in CD1 mouse assessed as stereotypy at 100 mg/kg, ip after 4 hrs; assay type: functional, organism-based; design: dose 100 mg/kg
Mus musculus [7] = experiment: Locomotor activity in CD1 mouse assessed as stimulation at 1 mg/kg, ip after 1 hr relative to control; assay type: functional; details: route intraperitoneal
Mus musculus [8] = experiment: Locomotor activity in CD1 mouse assessed as stimulation at 0.3 mg/kg, ip after 2 hrs relative to control; assay type: functional; details: route intraperitoneal
Mus musculus [9] = experiment: Locomotor activity in CD1 mouse assessed as stimulation at 10 mg/kg, ip after 1 hr relative to control; assay type: functional; details: route intraperitoneal
Mus musculus [10] = experiment: Activity in CD1 mouse assessed as slight or intermittent stereotypy at 1 mg/kg, ip after 4 hrs; assay type: functional, organism-based; design: dose 1 mg/kg
Mus musculus [11] = experiment: Locomotor activity in CD1 mouse assessed as stimulation at 0.3 mg/kg, ip after 3 hrs relative to control; assay type: functional; details: route intraperitoneal
Mus musculus [12] = experiment: Locomotor activity in CD1 mouse assessed as stimulation at 0.3 mg/kg, ip after 1 hr relative to control; assay type: functional; details: route intraperitoneal
Mus musculus [13] = experiment: Activity in CD1 mouse assessed as hyperactivity at 10 mg/kg, ip after 4 hrs; assay type: functional, organism-based; design: dose 10 mg/kg
Rattus norvegicus [14] = experiment: Drug discrimination effect in CD Albino rat assessed as percent of rat choosing cocaine lever at 1 mg/kg, ip; assay type: functional; details: route intraperitoneal
Mus musculus [15] = experiment: Locomotor activity in CD1 mouse assessed as stimulation at 3 mg/kg, ip after 4 hrs relative to control; assay type: functional; details: route intraperitoneal
Mus musculus [16] = experiment: Locomotor activity in ip dosed CD1 mouse in peak hour; assay type: functional
Rattus norvegicus [17] = experiment: Drug discrimination effect in CD Albino rat assessed as percent of rat choosing cocaine lever at 0.3 mg/kg, ip; assay type: functional; details: route intraperitoneal
Mus musculus [18] = experiment: Activity in CD1 mouse assessed as straub tail at 100 mg/kg, ip after 4 hrs; assay type: functional, organism-based; design: dose 100 mg/kg
Rattus norvegicus [19] = experiment: Drug discrimination effect in CD Albino rat assessed as percent of rat choosing cocaine lever at 0.17 mg/kg, ip; assay type: functional; details: route intraperitoneal
Mus musculus [20] = experiment: Locomotor activity in CD1 mouse assessed as stimulation at 10 mg/kg, ip after 4 hrs relative to control; assay type: functional; details: route intraperitoneal
Mus musculus [21] = experiment: Locomotor activity in CD1 mouse assessed as stimulation at 1 mg/kg, ip after 2 hrs relative to control; assay type: functional; details: route intraperitoneal
Mus musculus [22] = experiment: Locomotor activity in CD1 mouse assessed as stimulation at 10 mg/kg, ip after 2 hrs relative to control; assay type: functional; details: route intraperitoneal
Mus musculus [23] = experiment: Locomotor activity in CD1 mouse assessed as stimulation at 0.3 mg/kg, ip after 4 hrs relative to control; assay type: functional; details: route intraperitoneal
Mus musculus [24] = experiment: Locomotor activity in CD1 mouse assessed as stimulation at 3 mg/kg, ip after 3 hrs relative to control; assay type: functional; details: route intraperitoneal
Mus musculus [25] = experiment: Locomotor activity in CD1 mouse assessed as stimulation at 10 mg/kg, ip after 3 hrs relative to control; assay type: functional; details: route intraperitoneal
[26] = target: Sodium-dependent noradrenaline transporter (Homo sapiens, UniProt P23975); experiment: Displacement of [3H]nisoxetine from NET
Mus musculus [27] = experiment: Activity in CD1 mouse assessed as slight or intermittent hyperactivity at 1 mg/kg, ip after 4 hrs; assay type: functional, organism-based; design: dose 1 mg/kg
Mus musculus [28] = experiment: Activity in CD1 mouse assessed as convulsions at 100 mg/kg, ip after 4 hrs; assay type: functional, organism-based; design: dose 100 mg/kg
Mus musculus [29] = experiment: Locomotor activity in CD1 mouse assessed as stimulation at 1 mg/kg, ip after 4 hrs relative to control; assay type: functional; details: route intraperitoneal
Rattus norvegicus [30] = experiment: Cocaine discrimination in ip dosed CD Albino rat; assay type: functional
Mus musculus [31] = experiment: Locomotor activity in CD1 mouse assessed as stimulation at 1 mg/kg, ip after 3 hrs relative to control; assay type: functional; details: route intraperitoneal
[32] = target: Sodium-dependent dopamine transporter (Homo sapiens, UniProt Q01959); experiment: Displacement of [3H]WIN-35428 from DAT
Mus musculus [33] = experiment: Activity in CD1 mouse assessed as ptosis at 100 mg/kg, ip after 4 hrs; assay type: functional, organism-based; design: dose 100 mg/kg
Rattus norvegicus [34] = experiment: Drug discrimination effect in CD Albino rat assessed as percent of rat choosing cocaine lever at 3 mg/kg, ip; assay type: functional; details: route intraperitoneal
Rattus norvegicus [35] = experiment: Drug discrimination effect in CD Albino rat assessed as percent of rat choosing cocaine lever at 10 mg/kg, ip; assay type: functional; details: route intraperitoneal
Rattus norvegicus [36] = experiment: Drug discrimination effect in CD Albino rat assessed as percent of rat choosing cocaine lever at 5.6 mg/kg, ip; assay type: functional; details: route intraperitoneal
Mus musculus [37] = experiment: Activity in CD1 mouse assessed as death at 100 mg/kg, ip after 4 hrs; assay type: functional, organism-based; design: dose 100 mg/kg
Mus musculus [38] = experiment: Locomotor activity in CD1 mouse assessed as stimulation at 30 mg/kg, ip after 1 hr relative to control; assay type: functional; details: route intraperitoneal
Mus musculus [39] = experiment: Activity in CD1 mouse assessed as hind limb splay at 100 mg/kg, ip after 4 hrs; assay type: functional, organism-based; design: dose 100 mg/kg; details: Hindlimb
Mus musculus [40] = experiment: Locomotor activity in CD1 mouse assessed as stimulation at 30 mg/kg, ip after 4 hrs relative to control; assay type: functional; details: route intraperitoneal
Mus musculus [41] = experiment: Locomotor activity in CD1 mouse assessed as stimulation at 30 mg/kg, ip after 3 hrs relative to control; assay type: functional; details: route intraperitoneal
Mus musculus [42] = experiment: Activity in CD1 mouse assessed as flattened body posture at 100 mg/kg, ip after 4 hrs; assay type: functional, organism-based; design: dose 100 mg/kg
Mus musculus [43] = experiment: Locomotor activity in CD1 mouse assessed as stimulation at 30 mg/kg, ip after 2 hrs relative to control; assay type: functional; details: route intraperitoneal
Mus musculus [44] = experiment: Activity in CD1 mouse assessed as circling at 100 mg/kg, ip after 4 hrs; assay type: functional, organism-based; design: dose 100 mg/kg
Mus musculus [45] = experiment: Activity in CD1 mouse assessed as stimulation at 10 mg/kg, ip after 4 hrs; assay type: functional, organism-based; design: dose 10 mg/kg
Mus musculus [46] = experiment: Activity in CD1 mouse assessed as ataxia at 100 mg/kg, ip after 4 hrs; assay type: functional, organism-based; design: dose 100 mg/kg
Mus musculus [47] = experiment: Activity in CD1 mouse assessed as tremor at 100 mg/kg, ip after 4 hrs; assay type: functional, organism-based; design: dose 100 mg/kg

Chain of Sodium-dependent noradrenaline transporter (P23975 whole entry): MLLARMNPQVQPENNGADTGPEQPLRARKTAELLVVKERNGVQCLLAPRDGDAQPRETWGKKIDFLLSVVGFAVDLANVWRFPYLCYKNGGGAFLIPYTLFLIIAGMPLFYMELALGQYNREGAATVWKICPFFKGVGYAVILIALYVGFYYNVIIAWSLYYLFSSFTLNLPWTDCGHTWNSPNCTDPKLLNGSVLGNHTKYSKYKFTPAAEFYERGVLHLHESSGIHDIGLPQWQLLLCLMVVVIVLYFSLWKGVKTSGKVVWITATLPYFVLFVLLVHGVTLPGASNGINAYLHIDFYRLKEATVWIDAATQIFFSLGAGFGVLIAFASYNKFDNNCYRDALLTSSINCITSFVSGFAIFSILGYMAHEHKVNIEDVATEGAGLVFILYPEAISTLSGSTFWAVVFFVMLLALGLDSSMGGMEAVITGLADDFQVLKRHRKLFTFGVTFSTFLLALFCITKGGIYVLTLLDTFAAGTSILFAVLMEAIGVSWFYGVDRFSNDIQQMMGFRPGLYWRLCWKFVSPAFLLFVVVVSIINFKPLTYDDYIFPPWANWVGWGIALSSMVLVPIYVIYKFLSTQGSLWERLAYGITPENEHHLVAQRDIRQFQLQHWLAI
Chain of Sodium-dependent dopamine transporter (Q01959 whole entry): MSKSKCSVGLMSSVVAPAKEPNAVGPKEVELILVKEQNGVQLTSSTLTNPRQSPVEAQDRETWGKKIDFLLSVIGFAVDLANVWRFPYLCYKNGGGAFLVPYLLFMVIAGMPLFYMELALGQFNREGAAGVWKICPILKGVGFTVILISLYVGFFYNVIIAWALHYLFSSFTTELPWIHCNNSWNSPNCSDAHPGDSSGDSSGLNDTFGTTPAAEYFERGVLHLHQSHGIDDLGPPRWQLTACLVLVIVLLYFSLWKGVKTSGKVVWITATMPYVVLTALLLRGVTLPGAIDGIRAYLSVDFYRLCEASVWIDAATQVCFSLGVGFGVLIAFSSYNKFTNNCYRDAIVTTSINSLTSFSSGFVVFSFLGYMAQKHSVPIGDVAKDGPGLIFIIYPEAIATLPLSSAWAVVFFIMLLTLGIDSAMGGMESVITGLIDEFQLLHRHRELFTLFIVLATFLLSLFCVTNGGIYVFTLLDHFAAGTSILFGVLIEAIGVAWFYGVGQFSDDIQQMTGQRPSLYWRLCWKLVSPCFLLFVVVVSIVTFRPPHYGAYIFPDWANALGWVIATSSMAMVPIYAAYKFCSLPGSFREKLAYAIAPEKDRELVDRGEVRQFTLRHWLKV
Chain of Sodium-dependent serotonin transporter (P31645 whole entry): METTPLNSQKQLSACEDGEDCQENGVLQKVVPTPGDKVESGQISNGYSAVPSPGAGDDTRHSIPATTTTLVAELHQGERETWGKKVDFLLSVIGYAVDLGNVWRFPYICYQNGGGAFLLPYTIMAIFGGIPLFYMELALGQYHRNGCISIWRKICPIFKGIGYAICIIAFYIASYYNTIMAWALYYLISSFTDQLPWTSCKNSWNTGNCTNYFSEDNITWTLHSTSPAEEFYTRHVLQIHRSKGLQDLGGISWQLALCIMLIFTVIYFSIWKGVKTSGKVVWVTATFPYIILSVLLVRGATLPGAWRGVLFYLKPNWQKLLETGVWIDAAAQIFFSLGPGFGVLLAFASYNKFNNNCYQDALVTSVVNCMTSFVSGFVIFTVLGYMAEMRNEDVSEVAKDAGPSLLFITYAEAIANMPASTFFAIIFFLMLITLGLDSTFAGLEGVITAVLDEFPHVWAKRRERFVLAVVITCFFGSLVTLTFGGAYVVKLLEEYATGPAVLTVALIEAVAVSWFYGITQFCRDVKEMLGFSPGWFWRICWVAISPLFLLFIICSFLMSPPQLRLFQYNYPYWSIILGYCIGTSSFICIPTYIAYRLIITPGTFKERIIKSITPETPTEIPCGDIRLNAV

SMILES | Activity (Mus musculus [2]) | Activity (Mus musculus [3]) | Activity (Mus musculus [6]) | Activity (Mus musculus [7]) | Activity (Mus musculus [9]) | Activity (Rattus norvegicus [14]) | Activity (Mus musculus [15]) | ED50 (Mus musculus [16]) | Activity (Mus musculus [18]) | Activity (Mus musculus [20]) | Activity (Mus musculus [21]) | Activity (Mus musculus [22]) | Activity (Mus musculus [24]) | Activity (Mus musculus [25]) | Ki [26] | Activity (Mus musculus [28]) | Activity (Mus musculus [29]) | ED50 (Rattus norvegicus [30]) | Activity (Mus musculus [31]) | IC50 [32] | also measured
COC(=O)[C@H]1[C@@H](c2ccc(F)cc2)C[C@H]2CC[C@H]1N2C | 633% | 558% | Active | 333% | 330% | 100% | 140% | 0.7 mg/kg | Active | 739% | 232% | 220% | 199% | 594% | 503 nM | Active | -29% | 0.29 mg/kg | 28% | – | Activity (Rattus norvegicus [1]): 86%; Activity (Mus musculus [4]): Active; IC50 [5]: 692 nM; Ki [5]: 63 nM; Activity (Mus musculus [8]): -33%; Activity (Mus musculus [10]): Active; Activity (Mus musculus [11]): -66%; Activity (Mus musculus [12]): 5%; Activity (Mus musculus [13]): Active; Activity (Rattus norvegicus [17]): 57%; Activity (Rattus norvegicus [19]): 0%; Activity (Mus musculus [23]): -47%; Activity (Mus musculus [27]): Active
COC(=O)[C@H]1[C@H]2CCC(C[C@H]1c1ccc(C)cc1)N2C | 6% | 132% | – | -15% | 8% | 13% | 56% | – | – | -36% | 110% | 96% | 47% | 120% | 1930 nM | Active | -51% | – | 118% | 23.4 nM | Activity (Mus musculus [33]): Active; Activity (Rattus norvegicus [34]): 0%; Activity (Rattus norvegicus [35]): 0%; Activity (Rattus norvegicus [36]): 13%; Activity (Mus musculus [37]): Active; Activity (Mus musculus [38]): -57%; Activity (Mus musculus [39]): Active; Activity (Mus musculus [40]): -35%; Activity (Mus musculus [41]): 78%; IC50 [26]: 3.85 µM; Activity (Mus musculus [42]): Active; Activity (Mus musculus [43]): -36%
COC(=O)[C@H]1C2CCC(C[C@@H]1c1ccc(Cl)cc1)N2C (stereo not given in full) | 68% | 188% | Active | 15% | 248% | – | 15% | 4.3 mg/kg | Active | 667% | 50% | 1003% | 92% | 1275% | – | Active | 62% | 4.07 mg/kg | 83% | 25 nM | Activity (Mus musculus [44]): Active; Activity (Rattus norvegicus [34]): 13%; Activity (Rattus norvegicus [35]): 67%; Activity (Rattus norvegicus [36]): 88%; Activity (Mus musculus [37]): Active; Activity (Mus musculus [38]): 154%; Activity (Mus musculus [45]): Active; Activity (Mus musculus [46]): Active; Activity (Mus musculus [40]): 794%; Activity (Mus musculus [47]): Active; Activity (Mus musculus [41]): 911%; Activity (Mus musculus [43]): 493%
